Our source for the IC50 values is patent US20120149700A1, “2-CYANOPHENYL FUSED HETEROCYCLIC COMPOUNDS, AND COMPOSTIONS AND USES THEREOF” (priority 2007, published 2012).

Each structure is given as a SMILES string.

What is called IC50 is the point on the concentration scale where inhibition reaches its midpoint.

The target in one assay is T1, P2X3 (Homo sapiens, UniProt P56373).
T1 construct: expressed in transfected cells; host or cells: e.g. HEK293 or 1321N1
T1 sequence (P56373 1-397): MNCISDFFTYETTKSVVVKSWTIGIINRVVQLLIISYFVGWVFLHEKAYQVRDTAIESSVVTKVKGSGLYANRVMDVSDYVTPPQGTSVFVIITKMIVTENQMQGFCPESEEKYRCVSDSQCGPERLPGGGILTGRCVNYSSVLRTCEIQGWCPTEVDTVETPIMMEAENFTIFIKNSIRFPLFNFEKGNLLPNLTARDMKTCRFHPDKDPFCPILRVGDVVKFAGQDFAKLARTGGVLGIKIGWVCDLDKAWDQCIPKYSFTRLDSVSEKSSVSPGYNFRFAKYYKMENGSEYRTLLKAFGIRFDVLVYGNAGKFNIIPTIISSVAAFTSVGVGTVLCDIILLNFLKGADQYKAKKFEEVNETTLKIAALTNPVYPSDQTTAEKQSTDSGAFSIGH
Put plainly: Calcium uptake assay (P2X antagonist assay, inhibition of agonist-induced calcium influx), P2X3. Type of assay: cell-based. The conditions noted are these: inhibition of agonist-induced calcium influx in cells expressing the receptor. The source says:
(§1) The human P2X2/3 chimera clone is created as described by Neelands et al, and then cloned into an expression vector as above. Receptors are expressed in cells (e.g., HEK293 or 1321N1 (obtained from the ECACC)) via transient transfection using standard lipid mediated transfection, or by creation of stable transfectants for each receptor. For expression of the P2X2/3 heteromeric receptor, the P2X3 expression vector is stably transfected into a cell line already stably expressing P2X2. P2X2/3 heteromer function is isolated using pharmacological methods. Cell lines are maintained in DMEM+5% Glutamax, the appropriate level of selective antibiotic, and 10% heat inactivated FBS.
(§2) Functional activity of compounds at the P2X receptor is determined by measuring their ability to inhibit agonist-induced calcium influx. Compounds are tested for antagonist activity against the P2X2/3 chimera, the P2X3 homomer, or the P2X2/3 heteromer. At the start of each screening day, the agonist EC50 is determined. Compound % inhibition or IC50s are subsequently determined using a pre-determined agonist concentration (EC50-90 depending on cell line) as a stimulus. The agonists used are αβMeATP, ATP, or other ATP analogs. Compounds may be tested at concentrations ranging from 1 pM to 10 μM.
(§3) To test for antagonist activity, cells expressing the appropriate receptor are seeded onto 96 or 384 well plates 18-24 hours prior to assay. […] Plates are incubated at 37° C. and then equilibrated at room temperature. Antagonism of agonist-induced calcium influx is measured using a fluorescent imaging plate reader (e.g. FLIPR^TETRA, Molecular Devices, Sunnyvale, Calif.). The assay comprises two stages: a pre-treatment phase followed by a treatment phase. Compounds may be tested as follows: For the pre-treatment phase, 50 μL of 3× concentration of test compound in HBSS is added to cells containing 100 μL of dye loading media to achieve a final concentration of 1× test compound. For the treatment phase, at a set interval after pre-treatment (1-30 minutes), 50 μl, of 1× test compound plus 4× agonist solution is added, resulting in a final concentration of 1× compound and 1× agonist. […] Responses are measured as (peak fluorescence after agonist addition) minus (baseline fluorescence prior to treatment). Percent inhibition is calculated as follows: […]
(§4) IC50 values are determined by analyzing dose response data in a 4 parameter logistic fit using GraphPad Prizm.

Another assay addresses T2, P2X2/3 (Homo sapiens, UniProt P56373+Q9UBL9).
T2 construct: expressed in transfected cells; host or cells: cell line stably expressing P2X2, stably transfected with P2X3 (e.g. HEK293 or 1321N1)
T2 sequence (Q9UBL9 1-471): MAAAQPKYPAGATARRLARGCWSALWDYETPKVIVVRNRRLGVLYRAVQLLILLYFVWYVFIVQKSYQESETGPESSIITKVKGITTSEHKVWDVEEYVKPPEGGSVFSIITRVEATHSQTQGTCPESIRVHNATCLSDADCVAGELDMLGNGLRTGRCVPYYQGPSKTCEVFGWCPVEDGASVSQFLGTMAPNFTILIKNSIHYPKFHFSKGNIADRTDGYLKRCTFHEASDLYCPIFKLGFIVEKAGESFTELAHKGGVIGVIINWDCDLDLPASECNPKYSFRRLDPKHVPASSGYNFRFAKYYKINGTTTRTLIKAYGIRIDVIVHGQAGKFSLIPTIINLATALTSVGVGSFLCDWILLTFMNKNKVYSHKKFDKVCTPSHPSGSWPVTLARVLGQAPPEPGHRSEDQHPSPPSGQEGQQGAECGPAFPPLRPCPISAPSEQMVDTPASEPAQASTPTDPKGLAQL
T2 sequence (P56373 1-397): T1 sequence (P56373 1-397)
Put plainly: Calcium uptake assay (P2X antagonist assay, inhibition of agonist-induced calcium influx), P2X2/3. Type of assay: cell-based. The conditions noted are these: inhibition of agonist-induced calcium influx in cells expressing the receptor.
Excerpt: as §1, §2, §3, §4

`Cc1ccc(N2CCc3ncnc(NCc4ccc(C(F)(F)F)nc4)c3C2)c(C#N)c1` [Compound 1, 5-Methyl-2-{4-[(6-trifluoromethyl-pyridin-3-ylmethyl)-amino]-7,8-dihydro-5H-pyrido[4,3-d]pyrimidin-6-yl}-benzonitrile]: the figures for the 50% inhibitory concentration (IC50) at P2X3 and on P2X2/3 were 19 nM and 92 nM, respectively.

With `N#Cc1cc(Br)ccc1N1CCc2ncnc(NCc3ccc(C(F)(F)F)nc3)c2C1` [Compound 2, 5-Bromo-2-{4-[(6-trifluoromethyl-pyridin-3-ylmethyl)-amino]-7,8-dihydro-5H-pyrido[4,3-d]pyrimidin-6-yl}-benzonitrile], the concentration for half-maximal inhibition (IC50) at P2X3 was found to be 80 nM. For the compound `N#Cc1cc(C2CC2)ccc1N1CCc2ncnc(NCc3ccc(C(F)(F)F)nc3)c2C1` [Compound 3, 5-Cyclopropyl-2-{4-[(6-trifluoromethyl-pyridin-3-ylmethyl)-amino]-7,8-dihydro-5H-pyrido[4,3-d]pyrimidin-6-yl}-benzonitrile], the IC50 at P2X3 is 870 nM.

As to `N#Cc1cc(Cl)ccc1N1CCc2ncnc(NCc3ccc(C(F)(F)F)nc3)c2C1` [Compound 4, 5-Chloro-2-{4-[(6-trifluoromethyl-pyridin-3-ylmethyl)-amino]-7,8-dihydro-5H-pyrido[4,3-d]pyrimidin-6-yl}-benzonitrile], the figures for the concentration for half-maximal inhibition (IC50) on P2X3 and on P2X2/3 were 37 nM and 842 nM, respectively. As for `N#Cc1cc(C(F)(F)F)ccc1N1CCc2ncnc(NCc3ccc(C(F)(F)F)nc3)c2C1` [Compound 5, 5-Trifluoromethyl-2-{4-[(6-trifluoromethyl-pyridin-3-ylmethyl)-amino]-7,8-dihydro-5H-pyrido[4,3-d]pyrimidin-6-yl}-benzonitrile], the IC50 at P2X3 is 1840 nM. On to `N#Cc1cc(F)ccc1N1CCc2ncnc(NCc3ccc(C(F)(F)F)nc3)c2C1` [Compound 9, 5-Fluoro-2-{4-[(6-trifluoromethyl-pyridin-3-ylmethyl)-amino]-7,8-dihydro-5H-pyrido[4,3-d]pyrimidin-6-yl}-benzonitrile], for which the 50% inhibitory concentration (IC50) at P2X3 turned out to be 85 nM; on P2X2/3, 11400 nM.

Turning to `N#Cc1ccccc1N1CCc2ncnc(NCc3ccc(C(F)(F)F)nc3)c2C1` [Compound 10, 2-{4-[(6-Trifluoromethyl-pyridin-3-ylmethyl)-amino]-7,8-dihydro-5H-pyrido[4,3-d]pyrimidin-6-yl}-benzonitrile], the half-inhibitory concentration (IC50) is 63 nM at P2X3 and 1810 nM on P2X2/3. Turning to `Cc1nc(C(F)(F)F)ccc1CNc1ncnc2c1CN(c1ccc(Cl)cc1C#N)CC2` [Compound 11, 5-Chloro-2-(4-((2-methyl-6-(trifluoromethyl)pyridin-3-yl)methylamino)-7,8-dihydropyrido[4,3-d]pyrimidin-6(5H)-yl)benzonitrile], the IC50 on P2X3 was 187 nM; at P2X2/3, more than 10000 nM.

As for `CN(C)c1ccc(CNc2ncnc3c2CN(c2ccc(Cl)cc2C#N)CC3)cn1` [Compound 12, 5-Chloro-2-(4-((6-(dimethylamino)pyridin-3-yl)methylamino)-7,8-dihydropyrido[4,3-d]pyrimidin-6(5H)-yl)benzonitrile], the IC50 on P2X3 came to 628 nM; on P2X2/3, 1190 nM. Regarding `COc1ccc(CNc2ncnc3c2CN(c2ccc(Cl)cc2C#N)CC3)cn1` [Compound 13, 5-Chloro-2-(4-((6-methoxypyridin-3-yl)methylamino)-7,8-dihydropyrido[4,3-d]pyrimidin-6(5H)-yl)benzonitrile], the IC50 at P2X3 was 59 nM; on P2X2/3, 169 nM.

Regarding `COc1ccc(CNc2ncnc3c2CN(c2ccc(Br)cc2C#N)CC3)cn1` [Compound 14, 5-Bromo-2-(4-((6-methoxypyridin-3-yl)methylamino)-7,8-dihydropyrido[4,3-d]pyrimidin-6(5H)-yl)benzonitrile], the half-maximal inhibitory concentration (IC50) on P2X3 stood at 78 nM; on P2X2/3, 325 nM. In the same order, the values of `N#Cc1cc(Cl)ccc1N1CCc2ncnc(NCc3ncc(C(F)(F)F)cc3Cl)c2C1` [Compound 16, 5-Chloro-2-{4-[(3-chloro-5-trifluoromethyl-pyridin-2-ylmethyl)-amino]-7,8-dihydro-5H-pyrido[4,3-d]pyrimidin-6-yl}-benzonitrile] are 91 nM and 1130 nM.

As to `N#Cc1cc(Cl)ccc1N1CCc2ncnc(NCc3ccc(C(F)(F)F)cn3)c2C1` [Compound 17, 5-Chloro-2-{4-[(5-trifluoromethyl-pyridin-2-ylmethyl)-amino]-7,8-dihydro-5H-pyrido[4,3-d]pyrimidin-6-yl}-benzonitrile], the IC50 was found to be 118 nM on P2X3 and 4890 nM at P2X2/3. With `COc1ccc([C@@H](CC(=O)OC(C)(C)C)Nc2ncnc3c2CN(c2ccc(Cl)cc2C#N)CC3)cn1` [Compound 18, (R)-3-[6-(4-Chloro-2-cyano-phenyl)-5,6,7,8-tetrahydro-pyrido[4,3-d]pyrimidin-4-ylamino]-3-(6-methoxy-pyridin-3-yl)-propionic acid tert-butyl ester], the half-inhibitory concentration (IC50) at P2X3 and on P2X2/3 was more than 10000 nM in each case. In the case of `COc1ccc([C@@H](CC(=O)O)Nc2ncnc3c2CN(c2ccc(Cl)cc2C#N)CC3)cn1` [Compound 19, (R)-3-[6-(4-Chloro-2-cyano-phenyl)-5,6,7,8-tetrahydro-pyrido[4,3-d]pyrimidin-4-ylamino]-3-(6-methoxy-pyridin-3-yl)-propionic acid], the IC50 was 1380 nM at P2X3 and more than 10000 nM at P2X2/3.

On to `N#Cc1cc(Cl)ccc1N1CCc2ncnc(N[C@H](CCO)c3ccc(C(F)(F)F)nc3)c2C1` [Compound 20, 5-Chloro-2-{4-[(R)-3-hydroxy-1-(6-trifluoromethyl-pyridin-3-yl)-propylamino]-7,8-dihydro-5H-pyrido[4,3-d]pyrimidin-6-yl}-benzonitrile], for which the IC50 on P2X3 was 90 nM; at P2X2/3 it was 903 nM. In the case of `Cc1ccc(N2CCc3ncnc(N[C@H](CCO)c4ccc(C(F)F)nc4)c3C2)c(C#N)c1` [Compound 22, 2-{4-[(R)-1-(6-Difluoromethyl-pyridin-3-yl)-3-hydroxy-propylamino]-7,8-dihydro-5H-pyrido[4,3-d]pyrimidin-6-yl}-5-methyl-benzonitrile], the half-inhibitory concentration (IC50) came out at 13 nM on P2X3 and 43 nM at P2X2/3. With `Cc1ccc(N2CCc3ncnc(NC(CCO)c4ccc(C(F)(F)F)nc4)c3C2)c(C#N)c1` (stereo not shown) [Compound 25, 2-{4-[3-Hydroxy-1-(6-trifluoromethyl-pyridin-3-yl)-propylamino]-7,8-dihydro-5H-pyrido[4,3-d]pyrimidin-6-yl}-5-methyl-benzonitrile], the IC50 at P2X3 was 55 nM; on P2X2/3, 136 nM. As for `Cc1ccc(N2CCc3ncnc(NCc4ccc(Cl)nc4)c3C2)c(C#N)c1` [Compound 27, 2-{4-[(6-Chloro-pyridin-3-ylmethyl)-amino]-7,8-dihydro-5H-pyrido[4,3-d]pyrimidin-6-yl}-5-methyl-benzonitrile], the IC50 at P2X3 amounted to 11 nM; at P2X2/3 it was 25 nM. As for `Cc1ccc(N2CCc3ncnc(NCc4ccc(Cl)cn4)c3C2)c(C#N)c1` [Compound 28, 2-{-4-[(5-Chloro-pyridin-2-ylmethyl)-amino]-7,8-dihydro-5,1-pyrido[4,3-d]pyrimidin-6-yl}-5-methyl-benzonitrile], the IC50 on P2X3 came out at 29 nM; at P2X2/3 it was 152 nM.
